{
  "source": "patent US20250099483A1",
  "about": "“THERAPEUTIC COMPOUNDS” (priority 2021, published 2025)",
  "format_in_all_cases": "in vivo, human (healthy male volunteers)",
  "key": {"[1]": {"assay": "Phase 1 trial Part I: plasma pharmacokinetics after single ascending oral doses", "protocol": "(§1) A Phase 1, randomized, double-blind, placebo-controlled clinical trial was performed to assess the safety and pharmacokinetics (PK) of Compound 1 after single, escalating, and repeated oral doses in healthy male volunteers.\n(§2) The primary objective was to assess the safety of escalating single oral doses of Compound 1 compared with placebo in healthy male volunteers. The secondary objective was to measure plasma pharmacokinetic (PK) parameters of Compound 1.\n(§3) 4-[(7-methoxy-2,3-dihydro-1,4-benzothiazepin-4(5H)yl)methyl]benzoic acid hemi-fumarate (Compound 1) was administered in a gastro-resistant tablet according to EXAMPLE 5. The formulation contained 20 mg, 40 mg, or 200 mg Compound 1 (based on the mass of 4-[(7-methoxy-2,3-dihydro-1,4-benzothiazepin-4(5H)yl)methyl]benzoic acid). Placebo tablet according to Example 2 was used as comparator.\nIn part I, participants from groups A, B, C, D, and E received single doses of 40 mg, 80 mg, 160 mg, 240 mg, or 400 mg Compound 1, respectively, or corresponding placebo. Forty subjects completed part I: 30 active (6 per cohort) and 10 placebo.\nIn Part I, blood samples were collected from each participant as follows: at pre-dose, then 0.25, 0.5, 1, 1.5, 2, 3, 4, 5, 6, 8, 10, 12, 16, 24, 36, 48, 60, 72, and 96 hours after dosing.\n(§4) The area under the plasma concentration-time curve was calculated using a combined linear and logarithmic trapezoidal rule. The interpolation was linear in the constant and ascending parts of the plasma concentration-time profiles. The interpolation was logarithmic in the descending parts.\nFor Part I, to assess the dose effect on the PK of Compound 1, the mean AUClast, and Cmax for each dose were calculated and were plotted by dose.\n(§5) Plasma and muscle samples were analyzed by LC-MS/MS method."}, "[2]": {"assay": "Phase 1 trial Part II: plasma pharmacokinetics after repeated once-daily oral doses over 14 days", "settings": "for Steady-state attained at day: once daily", "protocol": "as §1\n(§6) The primary objective was to assess the safety of escalating repeated oral doses of Compound 1 over 14 days compared with placebo in healthy male volunteers. The secondary objective was to measure plasma pharmacokinetic (PK) parameters of Compound 1 and to assess the concentration of Compound 1 in quadriceps muscle.\nas §3\nIn Part II, participants from groups I, J, K, and L received repeated doses of 20 mg, 60 mg, 120 mg, or 240 mg Compound 1, respectively, or corresponding placebo once daily over a period of 14 days. Forty-one subjects completed Part II: 7/7/8/7 for cohorts I, J, K, L, and twelve placebo.\nIn Part II, blood samples were collected from each participant as follows: Day 1:12 samples from the pre-morning dose up to 16 h (pre-dose, 0.25, 0.5, 1, 1.5, 2, 3, 4, 6, 8, 12, and 16 h), Days 2-13:12 samples at pre-doses (i.e., morning dose); Day 14:16 samples from the pre-morning dose up to 96 (D14 pre-dose, 0.25, 0.5, 1, 1.5, 2, 3, 4, 6, 8, 12, and 16 h and D15-18:1 sample before theoretical morning dosing.\nas §4\nFor Part II, the same approach was used on AUC, (Day 14) respectively AUC24 (Day 1), and Cmax.\nas §5"}, "[3]": {"assay": "Phase 1 trial Part II: concentration in quadriceps muscle biopsy on Day 13", "settings": "for Total Cpd I concentration / Unbound Cpd I concentration: quadriceps muscle, Day 13, at least 3 h post dose, median (range); for Kp: geom. mean (geom. % CV)", "protocol": "The primary objective was to assess the safety of escalating repeated oral doses of Compound 1 over 14 days compared with placebo in healthy male volunteers. The secondary objective was to measure plasma pharmacokinetic (PK) parameters of Compound 1 and to assess the concentration of Compound 1 in quadriceps muscle. For Study part II (for all groups), Concentrations of Compound 1 were determined in muscle by performing muscle biopsy on quadriceps muscle on day 13, at least 3 hours after morning dose. Plasma and muscle samples were analyzed by LC-MS/MS method. Muscle biopsy was performed to assess the concentration of Compound 1 in quadriceps muscle. The biopsy was performed on Day 13 at 3 hours post dose at least. Table 10 summarizes the ratios of unbound respective total concentration at Day 13 at 3 hours post dose divided by the plasma concentration on Day 14 at 3 hours post dose."}, "[4]": {"assay": "Phase 1 trial: safety and tolerability of single and repeated oral doses", "protocol": "as §1, §2, §6"}},
  "data": [
    {"smiles": "COc1ccc2c(c1)CN(Cc1ccc(C(=O)O)cc1)CCS2.O=C(O)/C=C/C(=O)O", "note": "[Compound 1, 4-[(7-methoxy-2,3-dihydro-1,4-benzothiazepin-4(5H)yl)methyl]benzoic acid hemifumarate]", "values": [
      {"measurement": "dose proportionality of AUClast and Cmax", "setting": "[1]; Part I, graphical inspections", "result": "dose proportionality"},
      {"measurement": "inter-individual variability across treatment groups", "setting": "[1]; Part I, single oral doses", "result": "low"},
      {"measurement": "linearity of pharmacokinetics with dose", "setting": "[1]; Part I, single oral doses", "result": "No evidence of non-linearity with the dose"},
      {"measurement": "tlag", "setting": "[1]; after single oral administration at 20 to 400 mg, gastro-resistant tablet", "result": "less than 2 hours"},
      {"measurement": "absorption", "setting": "[1]; single oral administration, after a lag time consistent with the gastro-resistant tablet", "result": "rapid absorption"},
      {"measurement": "Steady-state attained at day", "setting": "[2]; 240 mg cohort", "result": 5},
      {"measurement": "Steady-state attained at day", "setting": "[2]; 20, 60, and 120 mg cohorts", "result": 4},
      {"measurement": "inter-individual variability (Cmax and AUC24)", "setting": "[2]; Part II, 20, 60, 120, and 240 mg/d", "result": "low"},
      {"measurement": "Steady-state attained after days of daily treatment", "setting": "[2]; Part II, across cohorts 20-240 mg once daily", "result": "3 to 7", "unit": "days"},
      {"measurement": "dose proportionality of AUCτ resp. AUC0-24 and Cmax", "setting": "[2]; Part II, graphical inspections", "result": "dose proportionality"},
      {"measurement": "accumulation ratios for Cmax and AUC24", "setting": "[2]; after 14-day repeated administrations of 20, 60, 120, and 240 mg/d", "result": "1.4-1.8"},
      {"measurement": "Tmax", "setting": "[2]; male, human, plasma, after 14-days of repeated once daily oral administrations of 20 mg (so in the source), read-out: median Tmax", "result": "3 to 3.5", "unit": "h"},
      {"measurement": "linearity of pharmacokinetics with time and dose", "setting": "[2]; single and repeat dose studies", "result": "No evidence of non-linearity with the time and dose"},
      {"measurement": "dose proportionality of median unbound and total concentrations in quadriceps muscle", "setting": "[3]; Part II, 20-240 mg once daily", "result": "dose proportional"},
      {"measurement": "Kp at 3 h", "setting": "[3]; male, human, quadriceps muscle / plasma, oral, summary, within the dose range 20-240 mg", "result": "0.04 to 0.08"},
      {"measurement": "Total Cpd I concentration", "setting": "[3]; 20 mg once daily (n=7)", "result": "171 (141-341) ng/g"},
      {"measurement": "Unbound Cpd I concentration", "setting": "[3]; 20 mg once daily (n=7)", "result": "22.0 (17.5-41.5) ng/g"},
      {"measurement": "Total Cpd I concentration", "setting": "[3]; 60 mg once daily (n=7)", "result": "489 (273-693) ng/g"},
      {"measurement": "Unbound Cpd I concentration", "setting": "[3]; 60 mg once daily (n=7)", "result": "80.3 (49.7-124) ng/g"},
      {"measurement": "Total Cpd I concentration", "setting": "[3]; 120 mg once daily (n=8)", "result": "913 (614-1207) ng/g"},
      {"measurement": "Unbound Cpd I concentration", "setting": "[3]; 120 mg once daily (n=8)", "result": "104 (63.2-196) ng/g"},
      {"measurement": "Total Cpd I concentration", "setting": "[3]; 240 mg once daily (n=7)", "result": "1480 (890-1745) ng/g"},
      {"measurement": "Unbound Cpd I concentration", "setting": "[3]; 240 mg once daily (n=7)", "result": "242 (196-452) ng/g"},
      {"measurement": "Kpu", "setting": "[3]; summary, within the dose range 20-240 mg", "result": "0.008-0.01"},
      {"measurement": "Kp", "setting": "[3]; total muscle concentration Day 13, 3 h post dose / plasma concentration Day 14, 3 h post dose, 20 mg once daily", "result": "0.0808 (65.3) (ng/g)/(ng/mL)"},
      {"measurement": "Kp", "setting": "[3]; total muscle concentration Day 13 / plasma concentration Day 14, 3 h post dose, 60 mg once daily", "result": "0.0640 (22.6) (ng/g)/(ng/mL)"},
      {"measurement": "Kp", "setting": "[3]; total muscle concentration Day 13 / plasma concentration Day 14, 3 h post dose, 120 mg once daily", "result": "0.0636 (49.9) (ng/g)/(ng/mL)"},
      {"measurement": "Kp", "setting": "[3]; total muscle concentration Day 13 / plasma concentration Day 14, 3 h post dose, 240 mg once daily", "result": "0.0440 (30.0) (ng/g)/(ng/mL)"},
      {"measurement": "tolerability", "setting": "[4]; at the doses and dose regimens tested", "result": "well tolerated"},
      {"measurement": "serious adverse events", "setting": "[4]; single doses and 14-day repeated doses tested", "result": "No serious adverse events were reported"}
    ]}
  ]
}
